Square brackets hold non-standard residues; d marks the D form. Peptide text beside a SMILES is read from it. * marks the point of attachment. dPhe(4-NHCONH2) = NC(=O)Nc1ccc(C[C@@H](N)C(=O)O)cc1; Dihydroorotyl(S) = O=C1C[C@@H](C(=O)*)NC(=O)N1; dPhe(4-Cl) = N[C@H](Cc1ccc(Cl)cc1)C(=O)O; Phe(4-NH2) = Nc1ccc(C[C@H](N)C(=O)O)cc1; d2Nal = N[C@H](Cc1ccc2ccccc2c1)C(=O)O; Lys(iPr) = CC(C)NCCCC[C@H](N)C(=O)O; d3Pal = N[C@H](Cc1cccnc1)C(=O)O
Tests used:
human CYP450 system = type: in vitro ADME
[1] = human, in vivo
Text: Safety data from all clinical trials with degarelix in the treatment of prostate cancer, including patients receiving other dosing regimens, were pooled.

[2] = set-up: species or system human; conditions: in vivo
Text: Plasma protein binding is estimated to be approximately 90%.

[3] = in vivo
Protocol: In this example, a study was conducted to investigate the risk of cardiovascular events when ADT is utilized by a GnRH antagonist versus agonist in patients with or without a history of cardiovascular events.
Specifically, this study utilized available data yielding a safety database of 2328 PCa (prostate cancer) patients who participated in randomized clinical trials and received treatment with either degarelix or a GnRH agonist for up to 12 months (13 treatment months).
The study is based on data from two completed Phase 3 and 4 Phase 3b trials, all of which used an active comparator in form of a GnRH agonist. In each study, the primary inclusion criteria were male subjects ≥8 years of age with histologically confirmed adenocarcinoma of the prostate in whom ADT was indicated and a life expectancy of minimum 12 months could be anticipated. All subjects had serum testosterone levels that were either within the age-specified normal range or above the lower limit of the normal range of the central laboratory and ECOG score ≤2. Exclusion criterion ensured that none of the subjects had received long-term ADT (>6 months) before study entry.
Baseline evaluation included thorough collection of the main demographic characteristics (age, weight, height), lifestyle factors (smoking and drinking habits), and major CV risk factors (treated type 2 diabetes, treated hyperlipidemia, treated hypertension, and systolic and diastolic blood pressure). Patients also underwent physical examination and ECG assessment for potential cardiac morbidities. Medical history of CV events was captured by the following Standardized MedDRA Queries (myocardial infarction, ischemic heart diseases, ischemic stroke, hemorrhagic stroke, other arterial thrombotic/embolic events).
Cardiovascular events of interest were collected prospectively, typically at monthly visits, as adverse events or serious adverse events with date of occurrence. These events were coded using standard MedDRA terms and grouped into one of the same categories as those used to collect medical history.
The CV event rates in agonist and antagonist-treated patients were analyzed by 1-Kaplan-Meier plots of time to first-reported CV events and compared with log-rank test. The analysis was performed separately for strata of patients with or without history of CV events. To identify independent predictors of CV events we applied multivariate Cox proportional hazards models.
To further explore the apparent independent role of treatment choice and identify independent modifiable risk factors, this study established Cox proportional hazard models including CV events occurring during treatment as dependent variable and age, history of CV event, drinking (i.e., high alcohol consumption or abstinence) and smoking habits, hypertension, serum testosterone level and PCa disease stage as independent variables.

[4] = in vivo; remark: listed apart in the source
Protocol: Laboratory parameters (Table 4) were recorded at screening and during the study.

testosterone = assay: Example 2: serum testosterone (LC-MS/MS); type: in vivo, human; conditions: from Day 28 (Month 1)
Protocol: Serum testosterone was typically measured at baseline and then monthly in all cases. Serum testosterone was measured at a central laboratory using a validated liquid chromatography system with a tandem mass spectrometry assay with a lower limit of quantitation of 3 ng/dl.

clinical = conditions: human, in vivo, sc
Protocol: Median degarelix trough concentrations in the maintenance phase with 80 mg at a concentration of 20 mg/mL was 10.9 ng/mL.
The long half-life after subcutaneous administration is a consequence of a very slow release of degarelix from the depot formed at the injection site(s). The pharmacokinetic behavior of the drug is strongly influenced by its concentration in the injection formulation.

[5] = CS21: mortality by treatment group; type: in vivo, human
Text: The death of a patient enrolled in this study was not considered an event per se, but rather an outcome. Any event resulting in a fatal outcome was fully documented and reported, including death, which occurred within the four weeks after treatment end, and regardless of the causality relationship to the IMP.
Mortality Subgroups with Statistically (Pre-Planned as Part of the ISS) Significant Findings

## CC(=O)N[C@H](Cc1ccc2ccccc2c1)C(=O)N[C@H](Cc1ccc(Cl)cc1)C(=O)N[C@H](Cc1cccnc1)C(=O)N[C@@H](CO)C(=O)N[C@@H](Cc1ccc(NC(=O)[C@@H]2CC(=O)NC(=O)N2)cc1)C(=O)N[C@H](Cc1ccc(NC(N)=O)cc1)C(=O)N[C@@H](CC(C)C)C(=O)N[C@@H](CCCCNC(C)C)C(=O)N1CCC[C@H]1C(=O)N[C@H](C)C(N)=O [Degarelix, D-Alaninamide, N-acetyl-3-(2-naphthalenyl)-D-alanyl-4-chloro-D-phenylalanyl-3-(3-pyridinyl)-D-alanyl-L-seryl-4-[[[(4S)-hexahydro-2,6-dioxo-4-pyrimidinyl]carbonyl]amino]-L phenylalanyl-4-[(aminocarbonyl)amino]-D-phenylalanyl-L leucyl-N6-(1-methylethyl)-L-lysyl-L-prolyl] (Ac-[d2Nal][dPhe(4-Cl)][d3Pal]S[Phe(4-NH2)](Dihydroorotyl(S))[dPhe(4-NHCONH2)]L[Lys(iPr)]P[dA]-NH2)
Human CYP450 system
  substrate for the human CYP450 system: not a substrate for the human CYP450 system
[1]
  drug-related erectile dysfunction, gynaecomastia, hyperhidrosis, testicular atrophy, diarrhea: % of patients: ≥ 1%
[2]
  distribution volume: approximately 1 L/kg
  fraction excreted via the hepato-biliary system: approximately 80%
  fraction of dose renally excreted: approximately 20%
[3]
  Any CV adverse event, % (adverse events E): 6.0%
  Any CV adverse event, % of patients with adverse events: 2.9%
  Any CV adverse event, E = Number of adverse events: 90
  Any CV adverse event, N = Number of patients with adverse events: 44
  HR for CV event, degarelix versus the agonist: 0.62
  HR for CV event, degarelix vs agonist: 0.49
  Hemorrhagic stroke, % (adverse events E): 0.2%
  Hemorrhagic stroke, % of patients with adverse events: 0.2%
  Hemorrhagic stroke, E = Number of adverse events: 3
  Hemorrhagic stroke, N = Number of patients with adverse events: 3
  Ischemic heart disease, % (adverse events E): 1.8%
  Ischemic heart disease, % of patients with adverse events: 1.7%
  Ischemic heart disease, E = Number of adverse events: 27
  Ischemic heart disease, N = Number of patients with adverse events: 25
  Ischemic stroke, % (adverse events E): 1.1%
  Ischemic stroke, % of patients with adverse events: 0.9%
  Ischemic stroke, E = Number of adverse events: 16
  Ischemic stroke, N = Number of patients with adverse events: 14
  Myocardial infarction, % (adverse events E): 1.0%
  Myocardial infarction, % of patients with adverse events: 0.8%
  Myocardial infarction, E = Number of adverse events: 15
  Myocardial infarction, N = Number of patients with adverse events: 13
  Other embolic or thrombotic events, arterial, % (adverse events E): 1.9%
  Other embolic or thrombotic events, arterial, % of patients with adverse events: 1.5%
  Other embolic or thrombotic events, arterial, E = Number of adverse events: 29
  Other embolic or thrombotic events, arterial, N = Number of patients with adverse events: 23
  risk of a CV event lower if taking degarelix versus the agonist: 38%
[4]
  changes in liver function: no evidence of any clinically significant changes in liver function
testosterone
  median testosterone level: < 0.5 ng/mL
clinical
  metabolites in plasma samples: No significant metabolites were detected
clinical; male, 80 mg
  Median degarelix trough concentration: 10.9 ng/mL
clinical; male, 240 mg
  AUC: 29.8 µg·h/mL
[5]; Age >=65-<75
  Crude Mortality: (2%)
  Mortality per 1,000 PY, estimate: 20.2 per 1,000 PY
  No. of Deaths: 3
[5]; PCA = Localized
  Crude Mortality: (0%)
  Mortality per 1,000 PY, estimate: 0 per 1,000 PY
  No. of Deaths: 0

## CCNC(=O)[C@@H]1CCCN1C(=O)[C@H](CCCNC(=N)N)NC(=O)[C@H](CC(C)C)NC(=O)[C@@H](CC(C)C)NC(=O)[C@H](Cc1ccc(O)cc1)NC(=O)[C@H](CO)NC(=O)[C@H](Cc1c[nH]c2ccccc12)NC(=O)[C@H](Cc1c[nH]cn1)NC(=O)[C@@H]1CCC(=O)N1 [Leuprolide, leuprolide, reference compound]
[5]; Age >=65-<75
  Crude Mortality: (8%)
  Mortality per 1,000 PY, estimate: 99.0 per 1,000 PY
  No. of Deaths: 6
[5]; PCA = Localized
  Crude Mortality: (6%)
  Mortality per 1,000 PY, estimate: 70.3 per 1,000 PY
  No. of Deaths: 4
